The test system of series [1] is Human Gingival Fibroblasts. In words: PGE2 release from LPS exposed Human Gingival Fibroblasts. In kind it is cell-based. Conditions: for PGE2 Response (with LPS): media only without LPS = 100. On the procedure:
To further evaluate anti-inflammatory activity of IPMP in the oral cavity, a similar experiment was conducted on Human Gingival Fibroblasts. Cells were exposed to LPS as well as three non-irritating doses of IPMP (see example 1).
Another further experiment with IPMP and zinc chloride was conducted on Human Gingival Fibroblasts.

The test system of series [2] is LPS stimulated Raw 264.7 Macrophage cells.
Protocol: Anti-inflammatory activity was assessed on classical inflammation model LPS stimulated Raw 264.7 Macrophage cells. Inflammation response was quantified by measurements of the release of Prostaglandin E2 (PGE2) from the cells. Cells were exposed to E.coli lipopolysaccharide (LPS) with or without IPMP for 24 hours prior to assay. […] All values were normalized to cell viability of same sample, then to the inflammatory response of the cells without the addition of agents or LPS (100%).

As for `Cc1cc(O)ccc1C(C)C` [IPMP, 4-isopropyl-3-methylphenol], the “PGE2 Response (with LPS)” value in series [1] (2 μM IPMP) stood at 146 ± 46.6%; in series [1] (10 μM IPMP), 127 ± 21.6%; in series [1] (50 μM IPMP), 103 ± 13.3%; in series [2] (50 μM IPMP, E.coli LPS, 24 hours, normalized to cell viability and to cells without agents or LPS (100%)), 141 ± 6.4%. Further, the “Suppression of LPS induced inflammation” value in series [1] (2, 10, 50 μM IPMP, with LPS) is given as “suppresses LPS induced inflammation in a dose-dependent manner”. Also, the “Cell death / cell proliferation at nonirritative dose” value in series [2] is “neither cause cell death nor affect cell proliferation”. For the same compound, the “Irritation of cells by IPMP by itself” value in series [2] is given as “did not irritate the cells”. In series [2] (50 μM IPMP, 24 hours, no LPS, normalized to cell viability and to cells without agents or LPS (100%)), the “PGE2 Response (without LPS)” value is 101 ± 0.0%.
Consider `[Cl-].[Cl-].[Zn+2]` [Zinc Chloride, zinc chloride, reference compound], for which the “PGE2 Response (with LPS)” value in series [1] (55 μM Zinc Chloride) is 171 ± 2.9%.

Values taken from patent publication US20120034312A1, “4-ISOPROPYL-3-METHYLPHENOL FOR THE TREATMENT OF INFLAMMATION” (Glaxo Group Limited, priority 2009, published 2012).
